Data taken from patent publication US20230201290A1, “TGF-BETA INHIBITION, AGENTS AND COMPOSITION THEREFOR” (GMP BIOTECHNOLOGY LIMITED, priority 2020, published 2023).
Values after ≈ are worked out from the molar mass of the structure shown. Values joined by “and” are separate entries in the source; they are usually repeats but may differ in a detail not shown here. Equal entries are not always repeated. Where two headings read alike, the source gives them in different places.

How the values were obtained:
[1] = test system: SARS-CoV-2 virus; settings: higher values with higher multiplicity of infection; read-out: EC50 values for SARS-CoV-2 virus in the literature; cited from earlier work
[2] = healthy subjects; cited from earlier work
[3] = test system: SARS-COV-2 USA_WA1/2020; settings: for SI=CC50/EC50: SARS-CoV-2; for EC50: 50% effective antiviral concentration: SARS-CoV-2 USA_WA1/2020, Vero 76, CPE neutral red, day 5; for SI (CC50/EC50): SARS-CoV-2, Vero 76 cells; for Antiviral activity against SARS-CoV-2 (words): Vero 76
[4] = test system: Vero 76 cells; settings: for CC50: 50% cytotoxic concentration of compound without virus added: run alongside SARS-CoV-2 test
[5] = test system: TGF-β mRNA; settings: 100 mg/kg ip daily for 20 days; P<0.01; cited from earlier work
[6] = test system: falciparum malaria; settings: cited from earlier work; for recrudescence in a month: 1975, 3-day regimens
[7] = 500 mg orally, Child B cirrhosis; cited from earlier work
[8] = test system: vivax malaria; settings: cited from earlier work; for relapse rate within a month: 1975 comparison with chloroquine
[9] = test system: SARS-CoV-2; settings: VeroE6, 2-day incubation; cited from earlier work
[10] = test system: SARS-CoV-2; settings: Vero E6, MOI 0.01, 24 h post-infection; cited from earlier work
[11] = test system: cerebral malaria; settings: cited from earlier work
[12] = in vitro; settings: African green monkey
[13] = cited from earlier work
[14] = test system: SARS-COV-2 USA_WA1/2020; assay: microbe, parasite or virus in culture
[15] = test system: SARS-CoV (Urbani strain)
[16] = test system: C8161 human melanoma; assay: Orthotopic C8161 human melanoma model
[17] = 527 cases of falciparum malaria

Q: For CCN(CCO)CCCC(C)Nc1ccnc2cc(Cl)ccc12 (centres unmarked) [hydroxychloroquine], which EC50 [1] is on record?
A: 720 to 17300 nM

Q: For Clc1ccc2c(N3CCN(CCCN4CCN(c5ccnc6cc(Cl)ccc56)CC4)CC3)ccnc2c1 [piperaquine], which “slope of plasma concentration vs placebo-adjusted ΔQTcF” value [2] is on record?
A: 0.047 ms per ng ml-1

Q: With “AGCCCTGTATACGAC [FS (13.458-13.274)MOE] (2'-MOE modified, pattern not given here)” as the compound, how does the “SI=CC50/EC50” value [3] read?
A: >40

Q: And the “EC50: 50% effective antiviral concentration” value [3]?
A: 25 µg/mL

Q: What about the “CC50: 50% cytotoxic concentration of compound without virus added” value [4] of the same compound?
A: >1000 µg/mL

Q: What does the source list for “GGTAGGTAAAAACCTAATAT [5TERM (1-20)] (phosphorothioate backbone, further chemistry not given here)”?
A: SI=CC50/EC50 [3]: >140; SI (CC50/EC50) [3]: >140; EC50: 50% effective antiviral concentration [3]: 7.1 µg/mL; Antiviral activity against SARS-CoV-2 (words) [3]: High antiviral activity; CC50 [4]: > 1000 µg/mL; CC50: 50% cytotoxic concentration of compound without virus added [4]: >1000 µg/mL

Q: For “CTCCCTCATGGTGGCAGTTGA (chemistry not given here) [RSV, reference compound]”, which “SI=CC50/EC50” value [3] is on record?
A: >1.6

Q: What about the “SI (CC50/EC50)” value [3] of the same compound?
A: >1.6

Q: And the “EC50: 50% effective antiviral concentration” value [3]?
A: 620.0 µg/mL and 620 µg/mL

Q: And the “Antiviral activity against SARS-CoV-2 (words)” value (“Antiviral activity” for short) [3]?
A: did not demonstrate any suppression

Q: What about the CC50 [4] of the same compound?
A: > 1000 µg/mL

Q: Which “TGF-β mRNA levels within the tumor” value [5] does the source give for C[C@@H]1CC[C@H]2[C@@H](C)C(=O)O[C@@H]3O[C@@]4(C)CC[C@@H]1[C@]32OO4 [Artemisinin] here?
A: significantly decreased

Q: And the “cure of chloroquine-resistant (RI-RIII) cases” value ([6]; 143 cases, 3-day regimen oil, oil suspension or water suspension)?
A: all patients were cured

Q: And the Fever clearance time [6, 17]?
A: 30 to 40 h

Q: What about the “asexual parasite clearance time” value [6, 17] of the same compound?
A: 30 to 50 h

Q: What about the “average asexual parasite clearance time” value ([6]; 1975, 3-day regimens: artemisinin tablets 2.5 g, chloroquine 1.5 g base) of the same compound?
A: 37 ± 17.8 h

Q: What about the “recrudescence in a month” value [6] of the same compound?
A: All the cases

Q: And the “average parasite clearance time” value ([6]; group A: 500 mg daily for 5 days)?
A: 34 ± 14 h

Q: And the “average parasite clearance time” value ([6]; group B: 100/100/250/250/500 mg escalating)?
A: 50 ± 23 h

Q: What about the “mean parasite clearance time” value ([6]; single 500 mg oral dose, 11 patients) of the same compound?
A: 36 h

Q: And the “recrudescence rate within a month” value ([6]; tablets)?
A: 85%

Q: What about the “elimination half-life, log-linear regression” value [7] of the same compound?
A: 4 (±1.3) h

Q: And the “elimination half-life, non-linear regression, one-compartment model” value [7]?
A: 2.4 ± 0.9 h

Q: And the “mean (±SD) area under the concentration time curve” value [7]?
A: 2365 (±1761) h ng/ml

Q: What about the “mean (±SD) clearance” value [7] of the same compound?
A: 382 (±303) L/h

Q: And the “average asexual parasite clearance time” value ([8]; 1511 cases of vivax malaria)?
A: 30 to 40 h

Q: What about the average defervescence time ([8]; 1511 cases of vivax malaria) of the same compound?
A: 20 to 30 h

Q: What about the parasite clearance time ([8]; 1975: artemisinin tablets total 3 g, chloroquine total 1.5 g base) of the same compound?
A: 39.6 ± 13.5 h

Q: What about the “relapse rate within a month” value [8] of the same compound?
A: 21.4%

Q: And the “anti-SARS-CoV-2 activity by immunostaining for spike protein” value [9]?
A: confirmed

Q: What about the “Antiviral activity” value [3] of the same compound?
A: suppressed SARS-CoV-2 replication

Q: And the “Antiviral activity” value ([3]; listed as artemisinin)?
A: High antiviral activity

Q: What about the “anti-SARS-CoV-2 activity by RTPCR method” value [10] of the same compound?
A: confirmed

Q: And the mortality rate ([11]; 141 patients)?
A: 7.1%

Q: What about the patients cured ([11]; 141 patients) of the same compound?
A: 92.9%

Q: What about the average defervescence time ([11]; across all sites) of the same compound?
A: 34.1 to 56.7 h

Q: And the “average parasite clearance time” value ([11]; across all sites)?
A: 33.3 to 64.5 h

Q: What about the “average time taken to regain consciousness” value ([11]; across all sites) of the same compound?
A: 21.5 to 30.8 h

Q: And the cure rate ([11]; nasogastric gavage, 36 patients)?
A: 91.7%

Q: What about the CC50 [12] of the same compound?
A: 61 µg/mL (≈ 216 µM)

Q: What about the AUC ([13]; 500 mg after food) of the same compound?
A: 2,092±1,441 ng×ml^−1×h

Q: What about the “time at which half of the terminal value was reached” value ([13]; 500 mg after food) of the same compound?
A: 0.97 ± 0.68 h

Q: And the “maximum concentration of drug in serum (Cmax)” value ([13]; 500 mg capsules after food, six healthy subjects)?
A: 443 ± 224 ng/mL

Q: What about the oral plasma clearance ([13]; 1×250, 2×250, 4×250 mg capsules, eight healthy subjects) of the same compound?
A: about 400 L h-1

Q: And the mean oral clearance ([13]; population PK, 15 subjects, 160 and 500 mg)?
A: 417 L/h

Q: And the terminal elimination half-life ([13]; population PK, 15 subjects)?
A: 1.93 h

Q: And the volume of distribution ([13]; population PK, 15 subjects)?
A: 1210 L

Q: And the “mean induction time of own metabolism” value ([13]; semiphysiological autoinduction model, saliva)?
A: 1.9 h

Q: And the EC50 ([14]; Severe acute respiratory syndrome coronavirus 2, Vero 76, 120 h, read-out: EC50 (50% effective antiviral concentration))?
A: 0.45 µg/mL

Q: What about the EC50 ([14]; Severe acute respiratory syndrome coronavirus 2, Vero 76, 120 h, read-out: EC50: 50% effective antiviral concentration) of the same compound?
A: 0.45 µg/mL

Q: And the EC50 ([14]; Severe acute respiratory syndrome coronavirus 2, Vero 76, read-out: EC50 (value in brackets))?
A: 1590 nM

Q: What does the source list for “CATTGTAGATGTCAAAAGCC (phosphorothioate backbone, further chemistry not given here) [FS-2a (13539-13558)]”?
A: SI=CC50/EC50 [3]: >59; SI (CC50/EC50) [3]: >59; EC50: 50% effective antiviral concentration [3]: 17 µg/mL; Antiviral activity against SARS-CoV-2 (words) [3]: High antiviral activity; CC50 [4]: > 1000 µg/mL; CC50: 50% cytotoxic concentration of compound without virus added [4]: >1000 µg/mL

Q: For “GGTAGGTAAAAACCTAATAT [5TERM (1-20) MOE] (2'-MOE modified, pattern not given here)”, which “SI=CC50/EC50” value [3] is on record?
A: 120

Q: What about the “SI (CC50/EC50)” value [3] of the same compound?
A: 120

Q: What about the “EC50: 50% effective antiviral concentration” value [3] of the same compound?
A: 4.9 µg/mL

Q: And the “Antiviral activity” value [3]?
A: High antiviral activity

Q: What about the “SI (CC50/EC50)” value [15] of the same compound?
A: >2.6

Q: And the “Cytotoxicity” value [4]?
A: Cytotoxicity was observed

Q: What about the “Cytotoxicity” value ([4]; SARS-CoV-2 test) of the same compound?
A: Cytotoxicity was observed

Q: What about the “CC50: 50% cytotoxic concentration of compound without virus added” value [4] of the same compound?
A: 610 µg/mL

Q: Which “SI=CC50/EC50” value [3] does the source give for “GTTCGTTTAGAGAACAGATC (phosphorothioate backbone, 5-methyl C, further chemistry not given here) [TRS1 (53-72)]” here?
A: 95

Q: And the “SI (CC50/EC50)” value [3]?
A: 95

Q: What about the “EC50: 50% effective antiviral concentration” value [3] of the same compound?
A: 7.6 µg/mL

Q: What about the “Antiviral activity” value [3] of the same compound?
A: High antiviral activity

Q: And the “Cytotoxicity” value ([4]; SARS-CoV-2 test)?
A: Cytotoxicity was observed

Q: What about the “CC50: 50% cytotoxic concentration of compound without virus added” value [4] of the same compound?
A: 720 µg/mL

Q: With “CGTTTAGAGAACAGATCTAC [TRS2-2 53-72] (phosphorothioate backbone, further chemistry not given here)” as the compound, how does the “SI=CC50/EC50” value [3] read?
A: >530

Q: And the “SI (CC50/EC50)” value [3]?
A: >530

Q: What about the “EC50: 50% effective antiviral concentration” value [3] of the same compound?
A: 1.9 µg/mL

Q: What about the “Antiviral activity” value [3] of the same compound?
A: High antiviral activity

Q: What about the CC50 [4] of the same compound?
A: > 1000 µg/mL

Q: And the “CC50: 50% cytotoxic concentration of compound without virus added” value [4]?
A: >1000 µg/mL

Q: With CCN(CC)CCCC(C)Nc1ccnc2cc(Cl)ccc12 (centres unmarked) [chloroquine] as the compound, how does the “recrudescence in a month” value [6] read?
A: 50%

Q: And the “relapse rate within a month” value [8]?
A: no cases of relapse

Q: What does the source list for CN(C)/N=N/c1[nH]cnc1C(N)=O [DTIC, dacarbazine]?
A: Tumor growth suppressed versus control group 1 on day 42 ([16]; group 3: 1 mg/kg ip four times/week): −2%; Tumor growth suppressed versus control group 1 on day 42 ([16]; group 4: 10 mg/kg ip four times/week): 78%

Q: For “AGCCCTGTATACGAC [FS (13,458-13,472)] (antisense AGCCCTGTAGACGAC; phosphorothioate backbone, further chemistry not given here)”, which “SI=CC50/EC50” value [3] is on record?
A: 53

Q: What about the “SI (CC50/EC50)” value [3] of the same compound?
A: 53

Q: And the “EC50: 50% effective antiviral concentration” value [3]?
A: 5.2 µg/mL

Q: And the “Antiviral activity” value [3]?
A: High antiviral activity

Q: And the “Cytotoxicity” value ([4]; SARS-CoV-2 test)?
A: Cytotoxicity was observed

Q: What about the “CC50: 50% cytotoxic concentration of compound without virus added” value [4] of the same compound?
A: 430 µg/mL

Q: With “CGTTTAGAGAACAGATCTAC [TRS2-2 53-72 MOE] (2'-MOE modified, pattern not given here)” as the compound, how does the “SI=CC50/EC50” value [3] read?
A: >16

Q: What about the “SI (CC50/EC50)” value [3] of the same compound?
A: >16

Q: And the “EC50: 50% effective antiviral concentration” value [3]?
A: 62 µg/mL

Q: What about the CC50 [4] of the same compound?
A: > 1000 µg/mL

Q: And the “CC50: 50% cytotoxic concentration of compound without virus added” value [4]?
A: >1000 µg/mL

Q: For “TAAAGTTCGTTTAGAGAACAG (phosphorothioate backbone, further chemistry not given here) [TRS2 (56-76)]”, which “SI=CC50/EC50” value [3] is on record?
A: >14

Q: And the “SI (CC50/EC50)” value [3]?
A: >14

Q: What about the “EC50: 50% effective antiviral concentration” value [3] of the same compound?
A: 73 µg/mL

Q: What about the “SI (CC50/EC50)” value [15] of the same compound?
A: >2.9

Q: And the CC50 [4]?
A: > 1000 µg/mL

Q: What about the “Cytotoxicity” value [4] of the same compound?
A: Cytotoxicity was observed

Q: And the “CC50: 50% cytotoxic concentration of compound without virus added” value [4]?
A: >1000 µg/mL
